Assay results reported in US9795134B2, “Growth enhancement of plant” (RHODIA OPERATIONS, priority 2012, dated 2017).

System: Wheat seeds
Experiment: Germination test on wheat seeds with pesticide (tebuconazol) treatment
Format: in vivo
Conditions: Guar 1/seed 0.2%, tebuconazol/seed 0.1%, 25 ml water each 2 days, 25° C.
Excerpt: Germination rate means the number of plant emerging out of soil in comparison with the number of all introduced in the soil. Height is the medium height of all plants in a set. Spraying an aqueous solution comprising 0.4 wt % of Guar 1 and […] additives on the surface of Wheat seeds, to obtain a weight ratio Guar 1/seed of 0.2% and tebuconazol/seed of 0.1%. 900 g of soil in each pot are used; this soil coming from […] province and belongs to […] soil. The germination test is carried out under watering conditions of 25 ml water each 2 days, with a temperature is 25° C.

Compound: CC(C)(C)C(O)(CCc1ccc(Cl)cc1)Cn1cncn1 (centres unmarked) [tebucanozol, tebuconazol]
- Germination rate (36 days): 47%
- Height (36 days): 4.6 cm
